We go through 5 compounds from paper PMC8321095, “Species-Specific Effects of Cation Channel TRPM4 Small-Molecule Inhibitors” (Frontiers in Pharmacology, 2021).

Common to all, as to format: cell-based
In one assay the target is T1, human TRPM4 (Homo sapiens, UniProt Q8TD43).
T1 construct: expressed in transfected cells
In words: Inside-out patch clamp on TsA-201 cells stably expressing human TRPM4. Conditions: 300 μM calcium, +100 mV. The protocol:
(§1) They were kept at 37°C with 5% CO2 in a humidified atmosphere incubator.
Electrophysiological recordings were performed in the inside-out patch-clamp configuration with patch pipettes (1 and 2 μm tip opening) pulled from 1.5 mm borosilicate glass capillaries (Zeitz-Instruments GmbH, München, Germany) using micropipette puller P 97 (Sutter Instruments, Novato, CA, United States). The tips were polished to have a pipette resistance of 2–4 MΩ in the bath solution. The pipette solution contained (in mM) 150 NaCl, 10 HEPES, and 2 CaCl2 (pH 7.4 with NaOH). The bath solution contained (in mM) 150 NaCl, 10 HEPES, 2 HEDTA (pH 7.4 with NaOH), and no Ca^2+. […] The I-V relationships (IV curves) have been determined using an I-V protocol from −100 mV to +100 mV for 500 ms with a difference of 20 mV between each sweep (cf. Figure 6). […]
Electrophysiology data were analysed using IGOR PRO 6 (WaveMetrics, Lake Oswego, United States), Normalized current percentage inhibition was calculated as follows ([activated current at 300 μM calcium]—[activated current at 300 μM calcium with compound]) * 100/[activated current at 300 µM calcium]. […] Data are presented as mean ± SEM except for Figures 3 and 7, where the data have been normalised to 100 for the current recorded in the presence of 300 µM calcium only. […]

The subject of another assay is TsA-201 cells. The experiment in a line: Cytotoxicity test (trypan blue cell counting). Conditions: Homo sapiens, tsA201, 24 h, read-out: EC50, concentration of the inhibitor required to induce 50% of cell death.
For the next assay, the target named is T2, mouse TRPM4 (Mus musculus, UniProt Q7TN37).
T2 construct: expressed in transfected cells
T2 sequence (Q7TN37 whole entry): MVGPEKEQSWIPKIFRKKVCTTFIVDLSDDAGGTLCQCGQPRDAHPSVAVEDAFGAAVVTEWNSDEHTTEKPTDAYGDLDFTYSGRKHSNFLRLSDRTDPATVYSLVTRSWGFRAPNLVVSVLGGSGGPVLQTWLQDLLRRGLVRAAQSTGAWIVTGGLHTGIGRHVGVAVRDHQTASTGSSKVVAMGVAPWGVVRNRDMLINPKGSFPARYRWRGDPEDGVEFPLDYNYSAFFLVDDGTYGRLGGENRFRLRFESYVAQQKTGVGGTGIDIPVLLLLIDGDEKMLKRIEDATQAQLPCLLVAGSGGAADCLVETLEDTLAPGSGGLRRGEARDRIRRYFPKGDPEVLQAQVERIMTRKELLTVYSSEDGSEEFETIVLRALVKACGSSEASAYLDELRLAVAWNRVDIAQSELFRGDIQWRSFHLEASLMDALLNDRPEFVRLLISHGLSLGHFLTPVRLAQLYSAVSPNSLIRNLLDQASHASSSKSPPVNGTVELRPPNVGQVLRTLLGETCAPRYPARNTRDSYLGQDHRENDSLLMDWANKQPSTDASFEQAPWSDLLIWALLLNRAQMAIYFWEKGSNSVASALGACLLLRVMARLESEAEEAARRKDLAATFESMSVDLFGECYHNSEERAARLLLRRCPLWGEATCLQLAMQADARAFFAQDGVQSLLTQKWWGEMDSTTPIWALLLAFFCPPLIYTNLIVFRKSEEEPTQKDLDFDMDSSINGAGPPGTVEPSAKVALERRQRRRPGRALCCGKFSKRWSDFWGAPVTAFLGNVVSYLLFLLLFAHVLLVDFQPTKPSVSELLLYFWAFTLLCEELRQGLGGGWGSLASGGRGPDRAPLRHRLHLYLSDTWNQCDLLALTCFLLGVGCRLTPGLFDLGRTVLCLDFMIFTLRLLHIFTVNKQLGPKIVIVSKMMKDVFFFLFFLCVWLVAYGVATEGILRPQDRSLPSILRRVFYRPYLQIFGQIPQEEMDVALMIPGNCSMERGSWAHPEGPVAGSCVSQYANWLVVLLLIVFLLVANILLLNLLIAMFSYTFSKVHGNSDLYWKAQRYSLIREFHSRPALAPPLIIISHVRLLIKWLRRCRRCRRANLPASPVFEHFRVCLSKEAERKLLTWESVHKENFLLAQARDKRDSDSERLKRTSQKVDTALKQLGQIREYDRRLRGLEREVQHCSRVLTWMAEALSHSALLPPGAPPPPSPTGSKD
The experiment in a line: Inside-out patch clamp on TsA-201 cells stably expressing mouse TRPM4. The settings on record: for effect of CBA- and NBA-derived compounds on mouse TRPM4 current: 10 μM, applied intracellularly, n ≥ 6. The procedure: as §1
Electrophysiological recordings were performed in the inside-out patch-clamp configuration with patch pipettes (1 and 2 μm tip opening) pulled from 1.5 mm borosilicate glass capillaries (Zeitz-Instruments GmbH, München, Germany) using micropipette puller P 97 (Sutter Instruments, Novato, CA, United States). The tips were polished to have a pipette resistance of 2–4 MΩ in the bath solution. The pipette solution contained (in mM) 150 NaCl, 10 HEPES, and 2 CaCl2 (pH 7.4 with NaOH). The bath solution contained (in mM) 150 NaCl, 10 HEPES, 2 HEDTA (pH 7.4 with NaOH), and no Ca^2+. […] Bath solution with 0 and 300 μM Ca^2+ concentrations were applied to cells by a modified rapid solution exchanger (Perfusion Fast-Step SF-77B; Warner Instruments Corp. CT, United States). […] Data were low-pass filtered at 5 kHz and sampled at 10 kHz. Experiments were performed at room temperature (20–25°C). The holding potential was 0 mV. For measuring steady-state currents, the stimulation protocol consisted of two sweeps with a total duration of 1,000 ms, the first sweep at −100 mV for 500 ms and the second at +100 mV for 500 ms (Figure 2). […] The I-V relationships (IV curves) have been determined using an I-V protocol from −100 mV to +100 mV for 500 ms with a difference of 20 mV between each sweep (cf. Figure 6). The IV curves have been normalised to the maximum current. No fit was applied.
After obtaining inside-out membrane patches, the presence of TRPM4 in the patch membrane was confirmed by switching the perfusion solution without calcium at the intracellular side of the membrane to a solution containing 300 μM calcium, which activates TRPM4 and triggers the current. Once the TRPM4 currents were activated and stabilised for intracellular compound application, the perfusion solution containing 300 μM calcium and either the compound or free adenosine triphosphate (ATP) was applied. For extracellular application, the compounds were added to the […] (pipette) solution.
Electrophysiology data were analysed using IGOR PRO 6 (WaveMetrics, Lake Oswego, United States), Normalized current percentage inhibition was calculated as follows ([activated current at 300 μM calcium]—[activated current at 300 μM calcium with compound]) * 100/[activated current at 300 µM calcium]. Concentration-response curves were fitted using the Hill equation fit parameter of IGOR (NC = NCmax [Cmpd]nH/([Cmpd]nH + EC50 nH)) where NC is normalized current [Cmpd] is compound concentration and nH is the Hill coefficient. Data are presented as mean ± SEM except for Figures 3 and 7, where the data have been normalised to 100 for the current recorded in the presence of 300 µM calcium only. Statistically significant differences conditions were determined using a non-parametric test with a Mann-Whitney post-test.
Background: The patch-clamp technique gives a direct electrical read-out from membranes.

The mark [1] stands for this setting: bath solution, 300 μM calcium, +100 mV.

In general, IC50 refers to the midpoint of a concentration-inhibition curve.

T1 sequence (Q8TD43 whole entry): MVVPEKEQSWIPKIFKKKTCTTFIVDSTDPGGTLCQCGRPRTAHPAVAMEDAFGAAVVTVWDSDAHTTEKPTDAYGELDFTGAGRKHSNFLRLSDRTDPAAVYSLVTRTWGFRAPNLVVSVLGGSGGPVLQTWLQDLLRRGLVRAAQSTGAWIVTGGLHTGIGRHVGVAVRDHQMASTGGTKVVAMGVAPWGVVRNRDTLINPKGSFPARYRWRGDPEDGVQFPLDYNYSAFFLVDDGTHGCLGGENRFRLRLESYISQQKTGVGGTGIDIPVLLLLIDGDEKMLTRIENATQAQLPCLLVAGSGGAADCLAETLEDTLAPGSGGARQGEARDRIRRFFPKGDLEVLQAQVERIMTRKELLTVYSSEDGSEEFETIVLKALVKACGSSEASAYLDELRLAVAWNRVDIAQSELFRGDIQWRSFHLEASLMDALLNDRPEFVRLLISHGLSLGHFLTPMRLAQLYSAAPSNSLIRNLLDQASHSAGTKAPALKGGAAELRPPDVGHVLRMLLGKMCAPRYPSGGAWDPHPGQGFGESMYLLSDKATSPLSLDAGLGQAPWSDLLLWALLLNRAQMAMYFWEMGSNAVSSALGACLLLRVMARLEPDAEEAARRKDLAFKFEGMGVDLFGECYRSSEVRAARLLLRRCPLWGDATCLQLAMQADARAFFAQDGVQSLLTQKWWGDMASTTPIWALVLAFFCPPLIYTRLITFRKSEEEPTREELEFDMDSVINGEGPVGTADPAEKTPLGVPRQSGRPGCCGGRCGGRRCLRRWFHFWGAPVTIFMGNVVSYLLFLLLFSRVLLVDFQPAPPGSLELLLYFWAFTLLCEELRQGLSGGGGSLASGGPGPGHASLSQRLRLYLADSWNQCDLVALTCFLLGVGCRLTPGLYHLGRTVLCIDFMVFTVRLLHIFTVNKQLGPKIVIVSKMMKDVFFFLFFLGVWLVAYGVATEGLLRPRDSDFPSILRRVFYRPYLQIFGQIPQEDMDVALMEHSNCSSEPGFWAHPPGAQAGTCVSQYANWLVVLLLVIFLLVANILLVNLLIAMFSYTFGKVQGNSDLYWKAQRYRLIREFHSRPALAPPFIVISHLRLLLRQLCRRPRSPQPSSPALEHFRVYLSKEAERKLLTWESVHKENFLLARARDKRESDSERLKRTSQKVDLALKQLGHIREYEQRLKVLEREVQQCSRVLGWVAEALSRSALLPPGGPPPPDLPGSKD

Turning to `Oc1cc2ccccc2c2ccccc12` [9-phenanthrol], the “effect on human TRPM4 sodium current” value on human TRPM4 (30 μM, extracellular or intracellular application) is given as “inhibited human TRPM4 sodium current with a similar efficacy independently of the application side”. Also, the EC50 with TsA-201 cells was approximately 20000 nM. For the same compound, on mouse TRPM4 (0.1 μM versus 100 μM, intracellular application, n = 6), the “concentration dependence of potentiation of mouse TRPM4 current” value is on record as “more pronounced with low concentrations”. Moreover, the “effect on mouse TRPM4 current, intracellular application” value on mouse TRPM4 (30 μM in bath solution, 300 μM calcium, +100 mV) is reported as “increased the current”. Also, the “effect on mouse TRPM4 current, extracellular application” value at mouse TRPM4 (30 μM in pipette solution, 300 μM calcium, +100 mV) was “decreased the mouse TRPM4 current”. The “calcium dependence of the increase of mouse TRPM4 current” value at mouse TRPM4 (30 μM, intracellular application, with or without 300 μM calcium) was “observed only in the presence of 300 μM calcium”.

With `Nc1ncnc2c1ncn2[C@@H]1O[C@H](COP(=O)(O)OP(=O)(O)OP(=O)(O)O)[C@@H](O)[C@H]1O` [ATP, adenosine triphosphate], the IC50 on human TRPM4 (inside-out patch, bath solution, Hill fit, n = 6, read-out: IC50 on human TRPM4 current, intracellular application) came to 800 nM; at mouse TRPM4 (inside-out patch, bath solution, 300 μM calcium, +100 mV, Hill fit, n = 6, read-out: IC50 on mouse TRPM4 current, intracellular application), 1400 nM.

In the case of `O=C(COc1ccc(Cl)c2ccccc12)Nc1cc(Cl)ccc1C(=O)O` [NBA-d1, 4-chloro-2-(2-((4-chloronaphthalen-1-yl)oxy)acetamido) benzoic acid], on mouse TRPM4 (setting [1]), the “effect of CBA- and NBA-derived compounds on mouse TRPM4 current” value (from here on “effect of CBA- and NBA-derived compounds”) is given as “could inhibit mouse TRPM4 currents”.

Take `Cc1cc(Cl)ccc1OC(C)C(=O)Nc1cc(Cl)ccc1C(=O)O` (centres unmarked) [CBA-d1]: the “effect of CBA- and NBA-derived compounds” value on mouse TRPM4 (setting [1]) is “did not decrease the mouse TRPM4 currents”.

Consider `O=C(COc1cccc2c1CCCC2)Nc1cc(Cl)ccc1C(=O)O` [NBA-d2, 4-chloro-2-(2-((5,6,7,8-tetrahydronaphthalen-1-yl)oxy)acetamido) benzoic acid], for which the “effect of CBA- and NBA-derived compounds” value at mouse TRPM4 (setting [1]) is listed as “could inhibit mouse TRPM4 currents”.
